Measured values published in publication PMC10733463, “Berberine-microbiota interplay: orchestrating gut health through modulation of the gut microbiota and metabolic transformation into bioactive metabolites” (Frontiers in Pharmacology, 2023).

System: caecal microbiota cultures
Assay: 16S sequencing of total (DNA) and active (cDNA) community in caecal microbiota cultures, BBR vs Control
Type: cell-based, broiler chicken
Details: 48 h

COc1ccc2cc3[n+](cc2c1OC)CCc1cc2c(cc1-3)OCO2 [Berberine, Berberine chloride]
L2FC BBRDNA vs ControlDNA: 0.44 | L2FC BBRRNA vs BBRDNA: 3.40 | L2FC BBRRNA vs ControlRNA: 1.34 | L2FC BBRRNA vs ControlRNA (OTU 40798 (Butyricicoccus), active (cDNA) community): 0.45 | L2FC BBRRNA vs BBRDNA (OTU 40798 (Butyricicoccus), active vs total community in BBR group): -4.40 | L2FC BBRDNA vs ControlDNA (OTU 40798 (Butyricicoccus), total (DNA) community): 0.83 | L2FC BBRRNA vs ControlRNA (OTU 109633 (Eubacterium), active (cDNA) community): 1.92 | L2FC BBRRNA vs BBRDNA (OTU 109633 (Eubacterium), active vs total community in BBR group): -0.64 | L2FC BBRDNA vs ControlDNA (OTU 109633 (Eubacterium), total (DNA) community): 1.75 | L2FC BBRRNA vs ControlRNA (OTU 129401 (Family_Ruminococcaceae), active (cDNA) community): 1.00 | L2FC BBRRNA vs BBRDNA (OTU 129401 (Family_Ruminococcaceae), active vs total community in BBR group): 1.99 | L2FC BBRDNA vs ControlDNA (OTU 129401 (Family_Ruminococcaceae), total (DNA) community): 0.84 | L2FC BBRRNA vs ControlRNA (OTU 157573 (Alistipes), active (cDNA) community): -0.29 | L2FC BBRRNA vs BBRDNA (OTU 157573 (Alistipes), active vs total community in BBR group): 1.91 | L2FC BBRDNA vs ControlDNA (OTU 157573 (Alistipes), total (DNA) community): 0.19 | L2FC BBRRNA vs ControlRNA (OTU 157772 (uncultured Ruminococcaceae), active (cDNA) community): -0.27 | L2FC BBRRNA vs BBRDNA (OTU 157772 (uncultured Ruminococcaceae), active vs total community in BBR group): 1.68 | L2FC BBRDNA vs ControlDNA (OTU 157772 (uncultured Ruminococcaceae), total (DNA) community): -0.36 | L2FC BBRRNA vs ControlRNA (OTU 180099 (uncultured Lachnospiraceae), active (cDNA) community): -0.96 | L2FC BBRRNA vs BBRDNA (OTU 180099 (uncultured Lachnospiraceae), active vs total community in BBR group): -0.59 | L2FC BBRDNA vs ControlDNA (OTU 180099 (uncultured Lachnospiraceae), total (DNA) community): -1.55 | L2FC BBRRNA vs ControlRNA (OTU 186881 (Anaerofilum), active (cDNA) community): -1.11 | L2FC BBRRNA vs BBRDNA (OTU 186881 (Anaerofilum), active vs total community in BBR group): -0.59 | L2FC BBRDNA vs ControlDNA (OTU 186881 (Anaerofilum), total (DNA) community): -1.53 | L2FC BBRRNA vs ControlRNA (OTU 193240 (Butyricicoccus), active (cDNA) community): -1.08 | L2FC BBRRNA vs BBRDNA (OTU 193240 (Butyricicoccus), active vs total community in BBR group): -1.42 | L2FC BBRDNA vs ControlDNA (OTU 193240 (Butyricicoccus), total (DNA) community): -1.34 | L2FC BBRRNA vs ControlRNA (OTU 196831 (Oscillibacter), active (cDNA) community): 0.14 | L2FC BBRRNA vs BBRDNA (OTU 196831 (Oscillibacter), active vs total community in BBR group): 2.09 | L2FC BBRDNA vs ControlDNA (OTU 196831 (Oscillibacter), total (DNA) community): 0.24 | L2FC BBRRNA vs ControlRNA (OTU 199555 ([Ruminococcus] torques group), active (cDNA) community): -1.39 | L2FC BBRRNA vs BBRDNA (OTU 199555 ([Ruminococcus] torques group), active vs total community in BBR group): -0.15 | L2FC BBRDNA vs ControlDNA (OTU 199555 ([Ruminococcus] torques group), total (DNA) community): -1.72 | L2FC BBRRNA vs ControlRNA (OTU 233953 (Erysipelatoclostridium), active (cDNA) community): -1.85 | L2FC BBRRNA vs BBRDNA (OTU 233953 (Erysipelatoclostridium), active vs total community in BBR group): -0.21 | L2FC BBRDNA vs ControlDNA (OTU 233953 (Erysipelatoclostridium), total (DNA) community): -1.14 | L2FC BBRRNA vs ControlRNA (OTU 234912 (Ruminococcaceae UCG-013), active (cDNA) community): -2.52 | L2FC BBRRNA vs BBRDNA (OTU 234912 (Ruminococcaceae UCG-013), active vs total community in BBR group): -0.46 | L2FC BBRDNA vs ControlDNA (OTU 234912 (Ruminococcaceae UCG-013), total (DNA) community): -3.19 | L2FC BBRRNA vs ControlRNA (OTU 240271 (uncultured Ruminococcaceae), active (cDNA) community): 0.20 | L2FC BBRRNA vs BBRDNA (OTU 240271 (uncultured Ruminococcaceae), active vs total community in BBR group): 1.89 | L2FC BBRDNA vs ControlDNA (OTU 240271 (uncultured Ruminococcaceae), total (DNA) community): 0.33 | L2FC BBRRNA vs ControlRNA (OTU 249142 ([Ruminococcus] torques group), active (cDNA) community): -3.17 | L2FC BBRRNA vs BBRDNA (OTU 249142 ([Ruminococcus] torques group), active vs total community in BBR group): -0.87 | L2FC BBRDNA vs ControlDNA (OTU 249142 ([Ruminococcus] torques group), total (DNA) community): -2.54 | L2FC BBRRNA vs ControlRNA (OTU 293975 (uncultured Lachnospiraceae), active (cDNA) community): -2.01 | L2FC BBRRNA vs BBRDNA (OTU 293975 (uncultured Lachnospiraceae), active vs total community in BBR group): 0.18 | L2FC BBRDNA vs ControlDNA (OTU 293975 (uncultured Lachnospiraceae), total (DNA) community): -1.62 | L2FC BBRRNA vs ControlRNA (OTU 294545 (Ruminiclostridium), active (cDNA) community): -0.23 | L2FC BBRRNA vs BBRDNA (OTU 294545 (Ruminiclostridium), active vs total community in BBR group): 1.73 | L2FC BBRDNA vs ControlDNA (OTU 294545 (Ruminiclostridium), total (DNA) community): 0.21 | L2FC BBRRNA vs ControlRNA (OTU 308157 (Butyricicoccus), active (cDNA) community): 0.37 | L2FC BBRRNA vs BBRDNA (OTU 308157 (Butyricicoccus), active vs total community in BBR group): -1.55 | L2FC BBRDNA vs ControlDNA (OTU 308157 (Butyricicoccus), total (DNA) community): 0.47 | L2FC BBRRNA vs ControlRNA (OTU 315223 (Anaerotruncus), active (cDNA) community): 0.81 | L2FC BBRRNA vs BBRDNA (OTU 315223 (Anaerotruncus), active vs total community in BBR group): 2.28 | L2FC BBRDNA vs ControlDNA (OTU 315223 (Anaerotruncus), total (DNA) community): 0.02 | L2FC BBRRNA vs ControlRNA (OTU 349246 (Ruminiclostridium 9), active (cDNA) community): -1.09 | L2FC BBRRNA vs BBRDNA (OTU 349246 (Ruminiclostridium 9), active vs total community in BBR group): 1.04 | L2FC BBRDNA vs ControlDNA (OTU 349246 (Ruminiclostridium 9), total (DNA) community): -0.39 | L2FC BBRRNA vs ControlRNA (OTU 350256 (Intestinimonas), active (cDNA) community): -0.58 | L2FC BBRRNA vs BBRDNA (OTU 350256 (Intestinimonas), active vs total community in BBR group): 1.65 | L2FC BBRDNA vs ControlDNA (OTU 350256 (Intestinimonas), total (DNA) community): -0.23 | L2FC BBRRNA vs ControlRNA (OTU 356073 ([Eubacterium] xylanophilum group), active (cDNA) community): -1.98 | L2FC BBRRNA vs BBRDNA (OTU 356073 ([Eubacterium] xylanophilum group), active vs total community in BBR group): -1.05 | L2FC BBRDNA vs ControlDNA (OTU 356073 ([Eubacterium] xylanophilum group), total (DNA) community): -1.79 | L2FC BBRRNA vs ControlRNA (OTU 362793 (Oscillibacter), active (cDNA) community): 0.13 | L2FC BBRRNA vs BBRDNA (OTU 362793 (Oscillibacter), active vs total community in BBR group): 2.11 | L2FC BBRDNA vs ControlDNA (OTU 362793 (Oscillibacter), total (DNA) community): 0.33 | L2FC BBRRNA vs ControlRNA (OTU 364341 (Family_Ruminococcaceae), active (cDNA) community): 0.25 | L2FC BBRRNA vs BBRDNA (OTU 364341 (Family_Ruminococcaceae), active vs total community in BBR group): 1.56 | L2FC BBRDNA vs ControlDNA (OTU 364341 (Family_Ruminococcaceae), total (DNA) community): 0.20 | L2FC BBRRNA vs ControlRNA (OTU 368615 (uncultured Lachnospiraceae), active (cDNA) community): -0.96 | L2FC BBRRNA vs BBRDNA (OTU 368615 (uncultured Lachnospiraceae), active vs total community in BBR group): -1.57 | L2FC BBRDNA vs ControlDNA (OTU 368615 (uncultured Lachnospiraceae), total (DNA) community): -0.96 | L2FC BBRRNA vs ControlRNA (OTU 408513 (Ruminiclostridium 9), active (cDNA) community): -3.12 | L2FC BBRRNA vs BBRDNA (OTU 408513 (Ruminiclostridium 9), active vs total community in BBR group): 1.43 | L2FC BBRDNA vs ControlDNA (OTU 408513 (Ruminiclostridium 9), total (DNA) community): -2.29 | L2FC BBRRNA vs ControlRNA (OTU 443620 (uncultured Ruminococcaceae), active (cDNA) community): -0.74 | L2FC BBRRNA vs BBRDNA (OTU 443620 (uncultured Ruminococcaceae), active vs total community in BBR group): 0.61 | L2FC BBRDNA vs ControlDNA (OTU 443620 (uncultured Ruminococcaceae), total (DNA) community): 0.83 | L2FC BBRRNA vs ControlRNA (OTU 461487 (Ruminococcaceae UCG-014), active (cDNA) community): -0.55 | L2FC BBRRNA vs BBRDNA (OTU 461487 (Ruminococcaceae UCG-014), active vs total community in BBR group): -3.30 | L2FC BBRDNA vs ControlDNA (OTU 461487 (Ruminococcaceae UCG-014), total (DNA) community): -0.15 | L2FC BBRRNA vs ControlRNA (OTU 510295 (Fournierella), active (cDNA) community): 0.35 | L2FC BBRRNA vs BBRDNA (OTU 510295 (Fournierella), active vs total community in BBR group): -2.43 | L2FC BBRDNA vs ControlDNA (OTU 510295 (Fournierella), total (DNA) community): 0.86 | L2FC BBRRNA vs ControlRNA (OTU 519763 (Intestinimonas), active (cDNA) community): 1.22 | L2FC BBRRNA vs BBRDNA (OTU 519763 (Intestinimonas), active vs total community in BBR group): 2.52 | L2FC BBRDNA vs ControlDNA (OTU 519763 (Intestinimonas), total (DNA) community): 1.10
